Holding throughout (format): functional, cell membranes, Membrane vesicle
Holding throughout (parameters): scale not given: the % may be the effect or the level left

For data set [1], the target named is T1, Bsep (bile salt export pump) (Mus musculus, UniProt Q9QY30).
T1 sequence (Q9QY30 whole entry): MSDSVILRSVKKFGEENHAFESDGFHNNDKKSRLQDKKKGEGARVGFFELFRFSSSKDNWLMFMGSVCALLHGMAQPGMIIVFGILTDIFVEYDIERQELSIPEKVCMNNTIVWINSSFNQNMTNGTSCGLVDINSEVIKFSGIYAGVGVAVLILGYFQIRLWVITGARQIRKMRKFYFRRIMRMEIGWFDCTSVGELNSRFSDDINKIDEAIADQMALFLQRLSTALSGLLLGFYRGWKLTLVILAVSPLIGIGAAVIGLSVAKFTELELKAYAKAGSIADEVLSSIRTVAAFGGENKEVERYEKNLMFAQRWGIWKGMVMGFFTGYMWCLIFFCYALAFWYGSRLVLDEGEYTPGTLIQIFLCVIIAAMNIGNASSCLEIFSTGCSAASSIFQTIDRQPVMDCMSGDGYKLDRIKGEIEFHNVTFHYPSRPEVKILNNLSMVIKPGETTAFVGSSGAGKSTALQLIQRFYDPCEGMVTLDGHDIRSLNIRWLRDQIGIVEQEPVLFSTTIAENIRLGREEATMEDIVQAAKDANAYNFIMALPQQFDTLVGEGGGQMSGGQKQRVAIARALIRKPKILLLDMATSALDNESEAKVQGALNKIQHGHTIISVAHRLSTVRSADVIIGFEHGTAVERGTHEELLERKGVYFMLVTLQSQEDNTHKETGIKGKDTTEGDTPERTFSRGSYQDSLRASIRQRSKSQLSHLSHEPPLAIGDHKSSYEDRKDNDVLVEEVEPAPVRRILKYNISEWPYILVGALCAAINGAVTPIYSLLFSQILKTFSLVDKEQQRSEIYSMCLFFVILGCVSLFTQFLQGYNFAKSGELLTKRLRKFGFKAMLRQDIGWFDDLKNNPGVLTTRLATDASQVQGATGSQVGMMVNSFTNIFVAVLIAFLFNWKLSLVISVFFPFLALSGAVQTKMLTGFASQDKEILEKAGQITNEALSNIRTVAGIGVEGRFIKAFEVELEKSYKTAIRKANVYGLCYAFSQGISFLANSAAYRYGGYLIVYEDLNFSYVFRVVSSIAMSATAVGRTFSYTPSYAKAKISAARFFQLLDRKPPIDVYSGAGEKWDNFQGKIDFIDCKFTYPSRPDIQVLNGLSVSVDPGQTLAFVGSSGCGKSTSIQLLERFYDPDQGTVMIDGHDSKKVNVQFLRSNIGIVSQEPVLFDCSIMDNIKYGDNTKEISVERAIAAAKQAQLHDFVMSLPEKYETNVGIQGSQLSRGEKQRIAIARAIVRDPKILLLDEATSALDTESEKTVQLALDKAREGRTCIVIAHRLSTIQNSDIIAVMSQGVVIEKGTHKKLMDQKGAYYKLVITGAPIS
The data set can be described thus: TP_TRANSPORTER: inhibition of Taurocholate uptake (Taurochorate: 5 uM, CDCA: 50 uM) in membrane vesicles isolated from Bsep-expressing Balb-3T3 cells. Conditions: probe taurocholate, read-out: Activity.

In data set [2] the target is T1, Bsep (bile salt export pump). The data set is described as follows: TP_TRANSPORTER: inhibition of Taurocholate uptake (Taurochorate: 5 uM, TCDC: 50 uM) in membrane vesicles isolated from Bsep-expressing Balb-3T3 cells. As to conditions: probe taurocholate, read-out: Activity.
Data set [3] shares this target. The data set can be described thus: TP_TRANSPORTER: inhibition of Taurocholate uptake (Taurochorate: 5 uM, TDCA: 50 uM) in membrane vesicles isolated from Bsep-expressing Balb-3T3 cells. As to conditions: probe taurocholate, read-out: Activity.
The target of another data set is T2, Bile salt export pump (Mus musculus, UniProt Q9QY30).
T2 sequence (Q9QY30 whole entry): T1 sequence (Q9QY30 whole entry)
The data set is described as follows: TP_TRANSPORTER: inhibition of Taurocholate uptake (Taurochorate: 5 uM, UDCA: 50 uM) in membrane vesicles isolated from Bsep-expressing Balb-3T3 cells. Conditions: balb/3t3, 50 µM.

These results are taken from ChEMBL document CHEMBL2073980, “Molecular cloning and characterization of the murine bile salt export pump” (Gene, 2000).

Structures are written as SMILES.

Take `C[C@H](CCC(=O)O)[C@H]1CC[C@H]2[C@@H]3[C@H](O)C[C@@H]4C[C@H](O)CC[C@]4(C)[C@H]3CC[C@]12C` [CHENODIOL]: in data set [1], the activity at 50 µM is 11%.
As for `C[C@H](CCC(=O)NCCS(=O)(=O)O)[C@H]1CC[C@H]2[C@@H]3[C@H](O)C[C@@H]4C[C@H](O)CC[C@]4(C)[C@H]3CC[C@]12C` [TAUROCHENODEOXYCHOLATE], in data set [2], the activity at 50 µM is 25%.
For the molecule `C[C@H](CCC(=O)NCCS(=O)(=O)O)[C@H]1CC[C@H]2[C@@H]3CC[C@@H]4C[C@H](O)CC[C@]4(C)[C@H]3C[C@H](O)[C@]12C` [TAURODEOXYCHOLIC ACID], the activity at 50 µM in data set [3] turned out to be 5%.
In the case of `C[C@H](CCC(=O)O)[C@H]1CC[C@H]2[C@@H]3[C@@H](O)C[C@@H]4C[C@H](O)CC[C@]4(C)[C@H]3CC[C@]12C` [URSODIOL], the Activity at Bile salt export pump is on record as 51%.
